Experimental data reported in patent US9216978B2, “Ring-fused pyrimidines and triazines and use thereof for the treatment and/or prophylaxis of cardiovascular diseases” (BAYER INTELLECTUAL PROPERTY GMBH, priority 2010, dated 2015).

What was measured:
[1] = tested on: aorta; experiment: Vessel-relaxing action in vitro (phenylephrine-contracted aorta rings); conditions: Oryctolagus cuniculus; rabbit aorta rings, phenylephrine contraction; concentration reducing control contraction by 50%
Protocol: B-1. Vessel-Relaxing Action In Vitro
Rabbits are stunned with a blow on the back of the neck and exsanguinated. The aorta is removed, freed from adhering tissue, separated into rings with a width of 1.5 mm, and placed individually, with preloading, in 5-ml organ baths with carbogen-gassed Krebs-Henseleit solution at 37° C. with the following composition (mM in each case): sodium chloride: 119; potassium chloride: 4.8; calcium chloride dihydrate: 1; magnesium sulphate heptahydrate: 1.4; potassium dihydrogen phosphate: 1.2; sodium hydrogen carbonate: 25; glucose: 10. The contraction force is recorded with Statham UC2 cells, amplified and digitized via an A/D converter (DAS-1802 HC, Keithley Instruments Munich) and recorded in parallel on a continuous-line recorder. To produce contraction, phenylephrine is added to the bath cumulatively in increasing concentration. After several control cycles, the test substance is added in increasing dosage in each subsequent pass and the level of contraction is compared with the level of contraction reached in the immediately preceding pass. This is used for calculating the concentration that is required to reduce the level of the control value by 50% (IC50 value). The standard application volume is 5 μl, and the proportion of DMSO in the bath solution corresponds to 0.1%.

[2] = biological target: T1, recombinant guanylate cyclase reporter cell line (Rattus norvegicus, UniProt P19686+P20595); experiment: Action on recombinant guanylate cyclase reporter cell line; assay type: cell-based
T1 construct: expressed in transfected cells
T1 sequence (P20595 1-619): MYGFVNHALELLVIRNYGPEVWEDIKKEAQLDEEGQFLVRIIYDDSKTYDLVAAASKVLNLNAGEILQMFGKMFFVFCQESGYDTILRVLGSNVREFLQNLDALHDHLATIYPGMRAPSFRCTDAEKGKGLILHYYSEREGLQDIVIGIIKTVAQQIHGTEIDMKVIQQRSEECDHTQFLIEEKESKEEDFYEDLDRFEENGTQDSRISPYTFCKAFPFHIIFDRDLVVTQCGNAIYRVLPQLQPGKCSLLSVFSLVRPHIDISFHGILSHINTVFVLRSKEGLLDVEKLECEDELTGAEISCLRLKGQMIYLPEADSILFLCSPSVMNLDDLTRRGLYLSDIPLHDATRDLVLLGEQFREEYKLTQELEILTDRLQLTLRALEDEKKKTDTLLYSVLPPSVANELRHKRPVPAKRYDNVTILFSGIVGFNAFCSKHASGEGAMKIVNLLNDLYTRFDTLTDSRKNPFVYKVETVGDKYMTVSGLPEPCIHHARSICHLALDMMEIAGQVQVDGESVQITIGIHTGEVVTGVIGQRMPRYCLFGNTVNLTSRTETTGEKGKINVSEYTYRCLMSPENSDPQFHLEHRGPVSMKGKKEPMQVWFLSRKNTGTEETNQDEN
T1 sequence (P19686 1-690): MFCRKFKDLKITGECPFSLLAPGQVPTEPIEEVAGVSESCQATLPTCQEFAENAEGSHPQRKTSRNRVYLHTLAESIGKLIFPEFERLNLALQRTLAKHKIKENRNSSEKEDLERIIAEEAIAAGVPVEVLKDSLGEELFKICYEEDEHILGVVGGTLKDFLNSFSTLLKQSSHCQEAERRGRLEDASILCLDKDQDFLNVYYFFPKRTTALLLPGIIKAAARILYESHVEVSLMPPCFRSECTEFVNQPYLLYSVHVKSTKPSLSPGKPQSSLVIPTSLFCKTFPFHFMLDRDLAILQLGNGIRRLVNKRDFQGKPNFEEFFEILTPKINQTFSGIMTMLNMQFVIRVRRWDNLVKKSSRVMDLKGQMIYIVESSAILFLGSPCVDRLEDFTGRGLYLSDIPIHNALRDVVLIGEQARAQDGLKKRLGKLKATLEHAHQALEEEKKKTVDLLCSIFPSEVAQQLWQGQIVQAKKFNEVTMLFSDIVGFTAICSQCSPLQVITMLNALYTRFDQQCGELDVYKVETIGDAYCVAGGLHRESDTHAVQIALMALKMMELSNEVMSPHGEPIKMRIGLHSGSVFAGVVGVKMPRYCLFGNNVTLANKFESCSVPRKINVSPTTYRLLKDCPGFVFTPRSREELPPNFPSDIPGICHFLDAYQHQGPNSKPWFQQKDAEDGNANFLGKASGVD
Protocol: B-2. Action on Recombinant Guanylate Cyclase Reporter Cell Line
The cellular action of the compounds according to the invention is determined on a recombinant guanylate cyclase reporter cell line, as described in F. Wunder et al., Anal. Biochem. 339, 104-112 (2005).

| Structure (SMILES) | IC50 [1] | MEC (minimal effective concentration) [2] |
| --- | --- | --- |
| CC1(C)C(=O)Nc2nc(-c3nn(Cc4ccccc4F)c4ncc(F)cc34)ncc21 [Example 2, 2-[5-Fluoro-1-(2-fluorobenzyl)-1H-pyrazolo[3,4-b]pyridin-3-yl]-5,5-dimethyl-5,7-dihydro-6H-pyrrolo[2,3-d]pyrimidin-6-one] | 0.012 µM | 0.01 µM |
| O=C1Nc2nc(-c3nn(Cc4ccccc4F)c4ncccc34)ncc2C12CCOC2 (stereo not shown) [Example 3, 2′-[1-(2-Fluorobenzyl)-1H-pyrazolo[3,4-b]pyridin-3-yl]-4,5-dihydrospiro[furan-3,5′-pyrrolo[2,3-d]pyrimidin]-6′(7′H)-one] | – | 0.03 µM |
| O=C1Cc2cnc(-c3nn(Cc4ccccc4F)c4ncccc34)nc2N1 [Example 4, 2-[1-(2-Fluorobenzyl)-1H-pyrazolo[3,4-b]pyridin-3-yl]-5,7-dihydro-6H-pyrrolo[2,3-d]pyrimidin-6-one] | – | 0.03 µM |
| O=C1Nc2nc(-c3nn(Cc4ccccc4F)c4ncccc34)ncc2C12CC2 [Example 5, 2′-[1-(2-Fluorobenzyl)-1H-pyrazolo[3,4-b]pyridin-3-yl]spiro[cyclopropane-1,5′-pyrrolo[2,3-d]pyrimidin]-6′(7′H)-one] | – | 0.03 µM |
| O=C1Cc2nnc(-c3nn(Cc4ccccc4F)c4ncccc34)nc2N1 [Example 6, 3-[1-(2-Fluorobenzyl)-1H-pyrazolo[3,4-b]pyridin-3-yl]-5,7-dihydro-6H-pyrrolo[2,3-e][1,2,4]-triazin-6-one] | – | 0.03 µM |
| CC1(C)C(=O)Nc2nc(-c3nn(Cc4ccccc4F)c4ncccc34)nc(C(F)F)c21 [Example 7, 4-(Difluoromethyl)-2-[1-(2-fluorobenzyl)-1H-pyrazolo[3,4-b]pyridin-3-yl]-5,5-dimethyl-5,7-dihydro-6H-pyrrolo[2,3-d]pyrimidin-6-one] | 0.045 µM | 0.03 µM |
| O=C1Nc2nc(-c3nn(Cc4ccc(F)cc4F)c4ncccc34)ncc2C12CC2 [Example 8, 2′-[1-(2,4-Difluorobenzyl)-1H-pyrazolo[3,4-b]pyridin-3-yl]spiro[cyclopropane-1,5′-pyrrolo[2,3-d]pyrimidin]-6′(7′H)-one] | 0.013 µM | 0.03 µM |
| O=C1Nc2nc(-c3nn(Cc4cccc(F)c4F)c4ncccc34)ncc2C12CC2 [Example 10, 2′-[1-(2,3-Difluorobenzyl)-1H-pyrazolo[3,4-b]pyridin-3-yl]spiro[cyclopropane-1,5′-pyrrolo[2,3-d]pyrimidin]-6′(7′H)-one] | 0.006 µM | 0.03 µM |
| CC1(C)C(=O)Nc2nc(-c3nn(Cc4cccc(F)c4F)c4ncccc34)ncc21 [Example 11, 2-[1-(2,3-Difluorobenzyl)-1H-pyrazolo[3,4-b]pyridin-3-yl]-5,5-dimethyl-5,7-dihydro-6H-pyrrolo[2,3-d]pyrimidin-6-one] | 0.004 µM | 0.03 µM |
| CC1(C)C(=O)Nc2nc(-c3nn(Cc4ccccc4F)c4ncccc34)nc(C3CC3)c21 [Example 12, 4-Cyclopropyl-2-[1-(2-fluorobenzyl)-1H-pyrazolo[3,4-b]pyridin-3-yl]-5,5-dimethyl-5,7-dihydro-6H-pyrrolo[2,3-d]pyrimidin-6-one] | – | 0.1 µM |
| CC1(C)C(=O)Nc2nc(-c3nn(Cc4ccc(F)cc4F)c4ncccc34)ncc21 [Example 13, 2-[1-(2,4-Difluorobenzyl)-1H-pyrazolo[3,4-b]pyridin-3-yl]-5,5-dimethyl-5,7-dihydro-6H-pyrrolo[2,3-d]pyrimidin-6-one] | – | 0.1 µM |
| CC1CC(=O)Nc2nc(-c3nn(Cc4ccccc4F)c4ncccc34)ncc21 (stereo not shown) [Example 14, 2-[1-(2-Fluorobenzyl)-1H-pyrazolo[3,4-b]pyridin-3-yl]-5-methyl-5,8-dihydropyrido[2,3-d]-pyrimidin-7(6H)-one] | 0.065 µM | 0.1 µM |
| O=C1CC(C(F)(F)F)c2cnc(-c3nn(Cc4ccccc4F)c4ncccc34)nc2N1 (stereo not shown) [Example 15, 2-[1-(2-Fluorobenzyl)-1H-pyrazolo[3,4-b]pyridin-3-yl]-5-(trifluoromethyl)-5,8-dihydropyrido[2,3-d]pyrimidin-7(6H)-one] | – | 0.3 µM |
| O=C1Nc2nc(-c3nn(Cc4ccccc4F)c4ncccc34)ncc2C1=O [Example 16, 2-[1-(2-Fluorobenzyl)-1H-pyrazolo[3,4-b]pyridin-3-yl]-5H-pyrrolo[2,3-d]pyrimidine-5,6(7H)-dione] | – | 1.0 µM |
| CC1(O)C(=O)Nc2nc(-c3nn(Cc4ccccc4F)c4ncccc34)ncc21 (stereo not shown) [Example 17, 2-[1-(2-Fluorobenzyl)-1H-pyrazolo[3,4-b]pyridin-3-yl]-5-hydroxy-5-methyl-5,7-dihydro-6H-pyrrolo[2,3-d]pyrimidin-6-one] | 0.013 µM | 0.1 µM |
| CC1(C)C(=O)Nc2nc(-c3nn(Cc4ccc(F)cc4F)c4ncc(F)cc34)nnc21 [Example 21, 3-[1-(2,4-Difluorobenzyl)-5-fluoro-1H-pyrazolo[3,4-b]pyridin-3-yl]-7,7-dimethyl-5,7-dihydro-6H-pyrrolo[2,3-e][1,2,4]triazin-6-one] | – | 0.1 µM |
| O=C1Nc2nc(-c3nn(Cc4ccccc4F)c4ncccc34)ncc2C1(O)c1ccccc1 (stereo not shown) [Example 22, 2-[1-(2-Fluorobenzyl)-1H-pyrazolo[3,4-b]pyridin-3-yl]-5-hydroxy-5-phenyl-5,7-dihydro-6H-pyrrolo[2,3-d]pyrimidin-6-one] | – | 0.03 µM |
| O=C(O)CC1(O)C(=O)Nc2nc(-c3nn(Cc4ccccc4F)c4ncccc34)ncc21 (stereo not shown) [Example 25, {2-[1-(2-Fluorobenzyl)-1H-pyrazolo[3,4-b]pyridin-3-yl]-5-hydroxy-6-oxo-6,7-dihydro-5H-pyrrolo[2,3-d]pyrimidin-5-yl}acetic acid] | – | 1.0 µM |
| CC1(C)C(=O)Nc2nc(-c3nn(Cc4c(F)ccc(F)c4F)c4ncc(F)cc34)nnc21 [Example 29, 3-[5-Fluoro-1-(2,3,6-trifluorobenzyl)-1H-pyrazolo[3,4-b]pyridin-3-yl]-7,7-dimethyl-5,7-dihydro-6H-pyrrolo[2,3-e][1,2,4]triazin-6-one] | – | 0.1 µM |
| COC(=O)C(C)(C)c1nnc(-c2nn(Cc3ccc(F)cc3F)c3ncccc23)nc1O [Example 77A, Methyl 2-{3-[1-(2,4-difluorobenzyl)-1H-pyrazolo[3,4-b]pyridin-3-yl]-5-hydroxy-1,2,4-triazin-6-yl}-2-methylpropanoate] | – | 1.0 µM |
| COC(=O)C(C)(C)c1nnc(-c2nn(Cc3c(F)ccc(F)c3F)c3ncc(F)cc23)nc1O [Example 82A, Methyl 2-{3-[5-fluoro-1-(2,3,6-trifluorobenzyl)-1H-pyrazolo[3,4-b]pyridin-3-yl]-5-hydroxy-1,2,4-triazin-6-yl}-2-methylpropanoate] | – | 0.3 µM |
